What was measured:
[1] = 101.33 kPa, Liquid
[2] = refractive index (Na D-line) (dimensionless); conditions: 101.33 kPa, Liquid, Standard Abbe refractometry
[3] = xn = mol fraction of the nth substance listed; conditions: 101 kPa, Liquid

OCCO [1,2-ethanediol]
Conditions | mass density, 293.15 K [kg/m3] | mass density, 303.15 K [kg/m3] | mass density, 313.15 K [kg/m3] | refractive index, 293.15 K | refractive index, 298.15 K
[1] | 1113.37 | 1106.4 | 1099.35 | – | –
[2] | – | – | – | 1.4323 | 1.4309

OCCO [1,2-ethanediol] + CCCCO
mass density [kg/m3], [3]
Conditions | x1 = 0.08923 | x1 = 0.249 | x1 = 0.3206 | x1 = 0.4019 | x1 = 0.5347 | x1 = 0.6571 | x1 = 0.6974 | x1 = 0.7753 | x1 = 0.81 | x1 = 0.9121
293.15 K | 826.85 | 861.02 | 878.11 | 898.74 | 936.02 | 975.06 | 989.14 | 1017.69 | 1030.76 | 1073.19
298.15 K | 823.02 | 857.21 | 874.25 | 894.96 | 932.22 | 971.34 | 985.27 | 1013.86 | 1027.06 | 1069.67
303.15 K | 819.29 | 853.42 | 870.64 | 891.24 | 928.63 | 967.77 | 981.88 | 1010.51 | 1023.76 | 1066.15
308.15 K | 815.49 | 849.65 | 866.86 | 887.45 | 924.91 | 964.18 | 978.14 | 1006.95 | 1020.29 | 1062.56
313.15 K | 811.51 | 845.69 | 862.94 | 883.57 | 921.05 | 960.49 | 974.54 | 1003.28 | 1016.76 | 1059.01

CCCCO [butan-1-ol]
Conditions | mass density, 293.15 K [kg/m3] | mass density, 298.15 K [kg/m3] | mass density, 303.15 K [kg/m3] | mass density, 308.15 K [kg/m3] | mass density, 313.15 K [kg/m3] | refractive index, 293.15 K | refractive index, 298.15 K
[1] | 809.6 | 805.84 | 802.04 | 798.2 | 794.31 | – | –
[2] | – | – | – | – | – | 1.3997 | 1.3978

CCCCCCO [hexan-1-ol]
Conditions | mass density, 293.15 K [kg/m3] | mass density, 298.15 K [kg/m3] | mass density, 303.15 K [kg/m3] | mass density, 308.15 K [kg/m3] | mass density, 313.15 K [kg/m3] | refractive index, 293.15 K | refractive index, 298.15 K
[1] | 818.74 | 815.28 | 811.71 | 808.13 | 804.53 | – | –
[2] | – | – | – | – | – | 1.4183 | 1.4161

CCCCCCO [hexan-1-ol] + OCCO
mass density [kg/m3], [3]
Conditions | x2 = 0.08275 | x2 = 0.1585 | x2 = 0.2374 | x2 = 0.3265 | x2 = 0.4905 | x2 = 0.5445 | x2 = 0.5965 | x2 = 0.6932 | x2 = 0.7757 | x2 = 0.9053
293.15 K | 829.72 | 840.78 | 853.56 | 869.87 | 905.8 | 919.79 | 934.39 | 965.41 | 996.6 | 1057.08
298.15 K | 826.21 | 837.17 | 849.99 | 866.29 | 902.2 | 916.19 | 930.83 | 961.84 | 993.11 | 1053.67
303.15 K | 822.63 | 833.58 | 846.39 | 862.69 | 898.58 | 912.56 | 927.24 | 958.23 | 989.49 | 1050.1
308.15 K | 819.02 | 829.96 | 842.67 | 859.01 | 894.88 | 908.9 | 923.53 | 954.54 | 985.79 | 1046.52
313.15 K | 815.44 | 826.33 | 839.04 | 855.36 | 891.27 | 905.23 | 919.95 | 950.95 | 982.18 | 1042.98

CCCCCCCCO [octan-1-ol]
Conditions | mass density, 293.15 K [kg/m3] | mass density, 298.15 K [kg/m3] | mass density, 303.15 K [kg/m3] | mass density, 308.15 K [kg/m3] | mass density, 313.15 K [kg/m3] | refractive index, 293.15 K | refractive index, 298.15 K
[1] | 825.12 | 821.75 | 818.31 | 814.8 | 811.41 | – | –
[2] | – | – | – | – | – | 1.4298 | 1.428

CCCCCCCCO [octan-1-ol] + OCCO
mass density [kg/m3], [3]
Conditions | x2 = 0.07997 | x2 = 0.159 | x2 = 0.2159 | x2 = 0.36 | x2 = 0.4825 | x2 = 0.5912 | x2 = 0.6299 | x2 = 0.7437 | x2 = 0.8063 | x2 = 0.8892
293.15 K | 833.01 | 842 | 849.21 | 870.86 | 894.13 | 920.03 | 930.8 | 968.64 | 994.57 | 1036.57
298.15 K | 829.64 | 838.63 | 845.74 | 867.38 | 890.64 | 916.52 | 927.19 | 965.11 | 991.03 | 1033.02
303.15 K | 826.15 | 835.13 | 842.24 | 863.92 | 887.11 | 912.94 | 923.7 | 961.5 | 987.45 | 1029.52
308.15 K | 822.68 | 831.61 | 838.76 | 860.33 | 883.47 | 909.33 | 920.08 | 957.92 | 983.8 | 1025.99
313.15 K | 819.15 | 828.07 | 835.18 | 856.83 | 879.91 | 905.71 | 916.5 | 954.32 | 980.25 | 1022.37
